Experimental data from patent US8946234B2, “Halogen-substituted compounds” (Bayer CropScience AG, priority 2008, dated 2015).

Assay: logP by HPLC on a C18 phase inversion column, EEC Directive 79/831 Annex V.A8, method b) (HP1100, 5-95% acetonitrile in 1.70 min)
Format: physicochemical
Details: HPLC method b)
Procedure: ^b) Note regarding the determination of the log P values and mass detection: The log P values given were determined in accordance with EEC Directive 79/831 Annex V.A8 by HPLC (High Performance Liquid Chromatography) on a phase inversion column (C18). HP1100; 50*4.6 Zorbax Eclipse Plus C18 1.8 micron; eluent A: acetonitrile (0.1% formic acid); eluent B: water (0.08% formic acid); linear gradient from 5% acetonitrile to 95% acetonitrile in 1.70 min, then 95% acetonitrile for a further 1.00 min; oven temperature 55° C.; flow: 2.0 ml/min. The mass detection is carried out via the mass detector Micromass ZQ2000 from Waters.

Structure (SMILES)	logP
C[C@H]1C[C@H]1NC(=O)c1cc(NC(=O)c2c(C(F)(F)F)c(C(F)(F)C(F)(F)F)nn2C)ccc1Cl [Ik-279]	3.37^b)
CCCNC(=O)c1cc(NC(=O)c2c(C(F)(F)F)c(C(F)(F)C(F)(F)F)nn2C)ccc1Cl [Ik-30]	3.23^b)
CC(NC(=O)c1cc(NC(=O)c2c(C(F)(F)F)c(C(F)(F)C(F)(F)F)nn2C)ccc1Cl)c1ccccc1 (stereo not shown) [Ik-38]	3.89^b)
CSCC(C)(C)NC(=O)c1cc(NC(=O)c2c(C(F)(F)F)c(C(F)(F)C(F)(F)F)nn2C)ccc1Cl [Ik-289]	4.05^b)
CN(C(=O)c1cc(NC(=O)c2c(C(F)(F)F)c(C(F)(F)C(F)(F)F)nn2C)ccc1Cl)C1CC1 [Ik-31]	3.51^b)
CCCC(NC(=O)c1cc(NC(=O)c2c(C(F)(F)F)c(C(F)(F)C(F)(F)F)nn2C)ccc1Cl)C(F)(F)F (stereo not shown) [Ik-298]	4.11^b)
Cn1nc(C(F)(F)C(F)(F)F)c(C(F)(F)F)c1C(=O)Nc1ccc(Cl)c(C(=O)NCC(F)(F)C(F)(F)F)c1 [Ik-302]	3.78^b)
CC(C)N(C)C(=O)c1cc(NC(=O)c2c(C(F)(F)F)c(C(F)(F)C(F)(F)F)nn2C)ccc1Cl [Ik-35]	3.73^b)
Cn1nc(C(F)(F)C(F)(F)F)c(C(F)(F)F)c1C(=O)Nc1ccc(Cl)c(C(=O)NCc2ccc(F)cc2)c1 [Ik-312]	3.73^b)
Cn1nc(C(F)(F)C(F)(F)F)c(C(F)(F)F)c1C(=O)Nc1ccc(Cl)c(C(=O)NCc2ccc(F)cc2F)c1 [Ik-308]	3.94^b)
Cn1nc(C(F)(F)C(F)(F)F)c(C(F)(F)F)c1C(=O)Nc1ccc(Cl)c(C(=O)NCCOCC(F)(F)F)c1 [Ik-281]	3.53^b)
CC(NC(=O)c1cc(NC(=O)c2c(C(F)(F)F)c(C(F)(F)C(F)(F)F)nn2C)ccc1Cl)C1(Cl)CC1 (stereo not shown) [Ik-288]	4.05^b)
CCc1c(C(F)(F)C(F)(F)F)nn(C)c1C(=O)Nc1ccc(Cl)c(C(=O)NCc2ccccc2)c1 [Ik-272]	3.68^b)
CC(NC(=O)c1cc(NC(=O)c2c(C(F)(F)F)c(C(F)(F)C(F)(F)F)nn2C)ccc1Cl)c1ccccc1F (stereo not shown) [Ik-284]	4.00^b)
Cn1nc(C(F)(F)C(F)(F)F)c(C(F)(F)F)c1C(=O)Nc1ccc(Cl)c(C(=O)NC2C=CS(=O)(=O)C2)c1 (stereo not shown) [Ik-278]	2.80^b)
Cn1nc(C(F)(F)C(F)(F)F)c(C(F)(F)F)c1C(=O)Nc1ccc(Cl)c(C(=O)NC(C)(C)C#N)c1 [Ik-274]	3.37^b)
Cn1nc(C(F)(F)C(F)(F)F)c(C(F)(F)F)c1C(=O)Nc1ccc(Cl)c(C(=O)NCC#N)c1 [Ik-48]	2.93^b)
Cc1cccc(CNC(=O)c2cc(NC(=O)c3c(C(F)(F)F)c(C(F)(F)C(F)(F)F)nn3C)ccc2Cl)c1 [Ik-304]	3.94^b)
CC(C)[C@H](NC(=O)c1cc(NC(=O)c2c(C(F)(F)F)c(C(F)(F)C(F)(F)F)nn2C)ccc1Cl)C(F)(F)F [Ik-310]	3.89^b)
Cn1nc(C(F)(F)C(F)(F)F)c(C(F)(F)F)c1C(=O)Nc1ccc(Cl)c(C(=O)NC2CC2c2ccccc2)c1 (stereo not shown) [Ik-47]	4.00^b)
COCC(C)(C#N)NC(=O)c1cc(NC(=O)c2c(C(F)(F)F)c(C(F)(F)C(F)(F)F)nn2C)ccc1Cl (stereo not shown) [Ik-275]	3.37^b)
Cn1nc(C(F)(F)C(F)(F)F)c(C(F)(F)F)c1C(=O)Nc1ccc(Cl)c(C(=O)NCc2ncn[nH]2)c1 [Ik-29]	2.31^b)
C[C@@H](NC(=O)c1cc(NC(=O)c2c(C(F)(F)F)c(C(F)(F)C(F)(F)F)nn2C)ccc1Cl)C(F)(F)F [Ik-307]	3.78^b)
Cn1nc(C(F)(F)C(F)(F)F)c(C(F)(F)F)c1C(=O)Nc1ccc(Cl)c(C(=O)NC2CC=CC2)c1 [Ik-287]	3.63^b)
Cn1nc(C(F)(F)C(F)(F)F)c(C(F)(F)F)c1C(=O)Nc1ccc(Cl)c(C(=O)NCC2CC2(C)C)c1 (stereo not shown) [Ik-46]	4.11^b)

Structure (SMILES)	logP
C/C(Cl)=C/CNC(=O)c1cc(NC(=O)c2c(C(F)(F)F)c(C(F)(F)C(F)(F)F)nn2C)ccc1Cl [Ik-295]	3.73^b)
Cn1nc(C(F)(F)C(F)(F)F)c(C(F)(F)F)c1C(=O)Nc1ccc(Cl)c(C(=O)NC2COC2)c1 [Ik-32]	2.76^b)
Cc1c(C(F)(F)C(F)(F)F)nn(C)c1C(=O)Nc1ccc(Cl)c(C(=O)NCc2ccccc2)c1 [Ik-271]	3.42^b)
CC(NC(=O)c1cc(NC(=O)c2c(C(F)(F)F)c(C(F)(F)C(F)(F)F)nn2C)ccc1Cl)c1cccc(F)c1 (stereo not shown) [Ik-303]	3.89^b)
Cn1nc(C(F)(F)C(F)(F)F)c(C(F)(F)F)c1C(=O)Nc1ccc(Cl)c(C(=O)NCc2cccc(F)c2)c1 [Ik-49]	3.78^b)
Cn1cc(C(F)(F)F)nc1C(NC(=O)c1cc(NC(=O)c2c(C(F)(F)F)c(C(F)(F)C(F)(F)F)nn2C)ccc1Cl)C(F)(F)F (stereo not shown) [Ik-276]	4.00^b)
CCOCCNC(=O)c1cc(NC(=O)c2c(C(F)(F)F)c(C(F)(F)C(F)(F)F)nn2C)ccc1Cl [Ik-53]	3.28^b)
Cn1nc(C(F)(F)C(F)(F)F)c(C(F)(F)F)c1C(=O)Nc1ccc(Cl)c(C(=O)NCC2(C)COC2)c1 [Ik-45]	2.98^b)
Cn1nc(C(F)(F)C(F)(F)F)c(C(F)(F)F)c1C(=O)Nc1ccc(Cl)c(C(=O)NCc2ccc(F)c(F)c2)c1 [Ik-309]	3.94^b)
CCC(NC(=O)c1cc(NC(=O)c2c(C(F)(F)F)c(C(F)(F)C(F)(F)F)nn2C)ccc1Cl)C(F)(F)F (stereo not shown) [Ik-297]	3.89^b)
COC(=O)CNC(=O)c1cc(NC(=O)c2c(C(F)(F)F)c(C(F)(F)C(F)(F)F)nn2C)ccc1Cl [Ik-34]	3.04^b)
Cn1nc(C(F)(F)C(F)(F)F)c(C(F)(F)F)c1C(=O)Nc1ccc(Cl)c(C(=O)NC(C)(C)CS(C)(=O)=O)c1 [Ik-301]	3.02^b)
Cn1nc(C(F)(F)C(F)(F)F)c(C(F)(F)F)c1C(=O)Nc1ccc(Cl)c(C(=O)NCc2ccccc2Cl)c1 [Ik-282]	4.05^b)
Cn1nc(C(F)(F)C(F)(F)F)c(C(F)(F)F)c1C(=O)Nc1ccc(Cl)c(C(=O)NC2(C(F)(F)F)CC2)c1 [Ik-296]	3.58^b)
Cn1nc(C(F)(F)C(F)(F)F)c(C(F)(F)F)c1C(=O)Nc1ccc(Cl)c(C(=O)NCC(C)(C)CF)c1 [Ik-42]	3.68^b)
Cn1nc(C(F)(F)C(F)(F)F)c(C(F)(F)F)c1C(=O)Nc1ccc(Cl)c(C(=O)NC2CCCC2)c1 [Ik-39]	3.78^b)
CCC1CC1NC(=O)c1cc(NC(=O)c2c(C(F)(F)F)c(C(F)(F)C(F)(F)F)nn2C)ccc1Cl (stereo not shown) [Ik-286]	3.84^b)
Cn1nc(C(F)(F)C(F)(F)F)c(C(F)(F)F)c1C(=O)Nc1ccc(Cl)c(C(=O)NC(C)(C)CC(F)(F)F)c1 [Ik-300]	4.00^b)
Cn1nc(C(F)(F)C(F)(F)F)c(C(F)(F)F)c1C(=O)Nc1ccc(Cl)c(C(=O)NC2CC2F)c1 (stereo not shown) [Ik-311]	3.28^b)
Cn1nc(C(F)(F)C(F)(F)F)c(C(F)(F)F)c1C(=O)Nc1ccc(Cl)c(C(=O)NC(C2CC2)C2CC2)c1 [Ik-61]	4.00^b)
C#CC(C)NC(=O)c1cc(NC(=O)c2c(C(F)(F)F)c(C(F)(F)C(F)(F)F)nn2C)ccc1Cl (stereo not shown) [Ik-293]	3.28^b)
CC(C#N)NC(=O)c1cc(NC(=O)c2c(C(F)(F)F)c(C(F)(F)C(F)(F)F)nn2C)ccc1Cl (stereo not shown) [Ik-292]	3.02^b)
CC(CF)NC(=O)c1cc(NC(=O)c2c(C(F)(F)F)c(C(F)(F)C(F)(F)F)nn2C)ccc1Cl (stereo not shown) [Ik-290]	3.28^b)
Cn1nc(C(F)(F)C(F)(F)F)c(C(F)(F)F)c1C(=O)Nc1ccc(Cl)c(C(=O)NCCc2ccc(Cl)cc2)c1 [Ik-40]	4.23^b)
